Laboratory results reported in ChEMBL document CHEMBL2380238, “Synthesis, spectral and antimicrobial evaluation of some novel 1-methyl-3-alkyl-2,6-diphenylpiperidin-4-one oxime carbonates” (2013).
Converted amounts (≈) assume the structure as drawn. The source made the active and inactive calls. No cut-off for these calls is given here.

What was measured:
Assay type in all cases: functional
[1] = test system: Escherichia coli; test: Antibacterial activity against Escherichia coli
[2] = test system: Fusarium; test: Antifungal activity against Fusarium after 72 to 96 hrs by broth dilution method
[3] = test system: Penicillium; test: Antifungal activity against Penicillium
[4] = test system: Escherichia coli; test: Antibacterial activity against Escherichia coli after 24 hrs by broth dilution method
[5] = test system: Rhizopus; test: Antifungal activity against Rhizopus after 72 to 96 hrs by broth dilution method
[6] = test system: Enterococcus faecalis; test: Antibacterial activity against Streptococcus faecalis
[7] = test system: Fusarium; test: Antifungal activity against Fusarium
[8] = test system: Klebsiella pneumoniae; test: Antibacterial activity against Klebsiella pneumoniae
[9] = test system: Aspergillus flavus; test: Antifungal activity against Aspergillus flavus
[10] = test system: Bacillus subtilis; test: Antibacterial activity against Bacillus subtilis after 24 hrs by broth dilution method
[11] = test system: Bacillus subtilis; test: Antibacterial activity against Bacillus subtilis
[12] = test system: Klebsiella pneumoniae; test: Antibacterial activity against Klebsiella pneumoniae after 24 hrs by broth dilution method
[13] = test system: Aspergillus niger; test: Antifungal activity against Aspergillus niger
[14] = test system: Rhizopus; test: Antifungal activity against Rhizopus
[15] = test system: Pseudomonas aeruginosa; test: Antibacterial activity against Pseudomonas aeruginosa after 24 hrs by broth dilution method
[16] = test system: Aspergillus flavus; test: Antifungal activity against Aspergillus flavus after 72 to 96 hrs by broth dilution method
[17] = test system: Aspergillus niger; test: Antifungal activity against Aspergillus niger after 72 to 96 hrs by broth dilution method
[18] = test system: Enterococcus faecalis; test: Antibacterial activity against Streptococcus faecalis after 24 hrs by broth dilution method
[19] = test system: Pseudomonas aeruginosa; test: Antibacterial activity against Pseudomonas aeruginosa
[20] = test system: Penicillium; test: Antifungal activity against Penicillium after 72 to 96 hrs by broth dilution method

SMILES | MIC [2] | MIC [4] | MIC [5] | MIC [10] | MIC [12] | MIC [15] | MIC [16] | MIC [17] | MIC [18] | MIC [20] | inhibition zone (IZ) [1] | inhibition zone (IZ) [3] | inhibition zone (IZ) [6] | inhibition zone (IZ) [7] | inhibition zone (IZ) [8] | inhibition zone (IZ) [9] | inhibition zone (IZ) [11] | inhibition zone (IZ) [13] | inhibition zone (IZ) [14] | inhibition zone (IZ) [19]
CC1/C(=N/O)CC(c2ccccc2)N(C)C1c1ccccc1 (stereo not given) | 200 µg/mL (≈ 679 µM) | 100 µg/mL (≈ 340 µM) | 100 µg/mL (≈ 340 µM) | 100 µg/mL (≈ 340 µM) | 200 µg/mL (≈ 679 µM) | 200 µg/mL (≈ 679 µM) | 200 µg/mL (≈ 679 µM) | 200 µg/mL (≈ 679 µM) | 200 µg/mL (≈ 679 µM) | 200 µg/mL (≈ 679 µM) | 12 mm | inactive | inactive | inactive | inactive | inactive | 12 mm | inactive | 12 mm | inactive
CCC1/C(=N/OC(=O)Oc2ccccc2)CC(c2ccccc2)N(C)C1c1ccccc1 (stereo not given) | 50 µg/mL (≈ 117 µM) | 25 µg/mL (≈ 58.3 µM) | 25 µg/mL (≈ 58.3 µM) | 25 µg/mL (≈ 58.3 µM) | 6.25 µg/mL (≈ 14.6 µM) | 12.5 µg/mL (≈ 29.2 µM) | 50 µg/mL (≈ 117 µM) | 50 µg/mL (≈ 117 µM) | 25 µg/mL (≈ 58.3 µM) | 25 µg/mL (≈ 58.3 µM) | 12 mm | 17 mm | 17 mm | 17 mm | 22 mm | 17 mm | 17 mm | 17 mm | 17 mm | 17 mm
CCOC(=O)O/N=C1\CC(c2ccccc2)N(C)C(c2ccccc2)C1CC (stereo not given) | 200 µg/mL (≈ 526 µM) | 25 µg/mL (≈ 65.7 µM) | 100 µg/mL (≈ 263 µM) | 25 µg/mL (≈ 65.7 µM) | 200 µg/mL (≈ 526 µM) | 200 µg/mL (≈ 526 µM) | 200 µg/mL (≈ 526 µM) | 200 µg/mL (≈ 526 µM) | 100 µg/mL (≈ 263 µM) | 200 µg/mL (≈ 526 µM) | 12 mm | inactive | 12 mm | inactive | inactive | inactive | 12 mm | inactive | 12 mm | inactive
CC1/C(=N/OC(=O)Oc2ccccc2)CC(c2ccccc2)N(C)C1c1ccccc1 (stereo not given) | 25 µg/mL (≈ 60.3 µM) | 12.5 µg/mL (≈ 30.2 µM) | 50 µg/mL (≈ 121 µM) | 25 µg/mL (≈ 60.3 µM) | 12.5 µg/mL (≈ 30.2 µM) | 25 µg/mL (≈ 60.3 µM) | 50 µg/mL (≈ 121 µM) | 100 µg/mL (≈ 241 µM) | 25 µg/mL (≈ 60.3 µM) | 50 µg/mL (≈ 121 µM) | 17 mm | 12 mm | 17 mm | 12 mm | 17 mm | 12 mm | 12 mm | 12 mm | 12 mm | 12 mm
CC(C)C1/C(=N/O)CC(c2ccccc2)N(C)C1c1ccccc1 (stereo not given) | 200 µg/mL (≈ 620 µM) | 50 µg/mL (≈ 155 µM) | 50 µg/mL (≈ 155 µM) | 25 µg/mL (≈ 77.5 µM) | 200 µg/mL (≈ 620 µM) | 200 µg/mL (≈ 620 µM) | 200 µg/mL (≈ 620 µM) | 200 µg/mL (≈ 620 µM) | 50 µg/mL (≈ 155 µM) | 100 µg/mL (≈ 310 µM) | 17 mm | 12 mm | 12 mm | inactive | inactive | inactive | 12 mm | inactive | 12 mm | 12 mm
CN[C@@H]1[C@H](O[C@H]2[C@H](O[C@H]3[C@H](O)[C@@H](O)[C@H](N=C(N)N)[C@@H](O)[C@@H]3N=C(N)N)O[C@@H](C)[C@]2(O)C=O)O[C@@H](CO)[C@H](O)[C@H]1O [STREPTOMYCIN] |  | 12.5 µg/mL (≈ 21.5 µM) |  | 12.5 µg/mL (≈ 21.5 µM) | 25 µg/mL (≈ 43 µM) | 25 µg/mL (≈ 43 µM) |  |  | 50 µg/mL (≈ 86 µM) |  | 28 mm |  | 22 mm |  | 26 mm |  | 28 mm |  |  | 26 mm
C[C@@H]1[C@H](O)[C@@H](C)/C=C/C=C/C=C/C=C/C=C/C=C/C=C/[C@H](O[C@@H]2O[C@H](C)[C@@H](O)[C@H](N)[C@@H]2O)C[C@@H]2O[C@](O)(C[C@@H](O)C[C@@H](O)[C@H](O)CC[C@@H](O)C[C@@H](O)CC(=O)O[C@H]1C)C[C@H](O)[C@H]2C(=O)O [AMPHOTERICIN B] | 25 µg/mL (≈ 27.1 µM) |  | 25 µg/mL (≈ 27.1 µM) |  |  |  | 50 µg/mL (≈ 54.1 µM) | 50 µg/mL (≈ 54.1 µM) |  | 25 µg/mL (≈ 27.1 µM) |  | 22 mm |  | 22 mm |  | 22 mm |  | 21 mm | 21 mm | 

Continued by falling MIC [2], values first:

MIC [2] | MIC [4] | MIC [5] | MIC [10] | MIC [12] | MIC [15] | MIC [16] | MIC [17] | MIC [18] | MIC [20] | SMILES | inhibition zone (IZ) [1] | inhibition zone (IZ) [3] | inhibition zone (IZ) [6] | inhibition zone (IZ) [7] | inhibition zone (IZ) [8] | inhibition zone (IZ) [9] | inhibition zone (IZ) [11] | inhibition zone (IZ) [13] | inhibition zone (IZ) [14] | inhibition zone (IZ) [19]
25 µg/mL (≈ 56.5 µM) | 25 µg/mL (≈ 56.5 µM) | 25 µg/mL (≈ 56.5 µM) | 25 µg/mL (≈ 56.5 µM) | 6.25 µg/mL (≈ 14.1 µM) | 6.25 µg/mL (≈ 14.1 µM) | 50 µg/mL (≈ 113 µM) | 50 µg/mL (≈ 113 µM) | 25 µg/mL (≈ 56.5 µM) | 25 µg/mL (≈ 56.5 µM) | CC(C)C1/C(=N/OC(=O)Oc2ccccc2)CC(c2ccccc2)N(C)C1c1ccccc1 (stereo not given) | 17 mm | 17 mm | 17 mm | 17 mm | 22 mm | 17 mm | 17 mm | 12 mm | 17 mm | 22 mm
25 µg/mL (≈ 62.4 µM) | 12.5 µg/mL (≈ 31.2 µM) | 25 µg/mL (≈ 62.4 µM) | 50 µg/mL (≈ 125 µM) | 12.5 µg/mL (≈ 31.2 µM) | 25 µg/mL (≈ 62.4 µM) | 50 µg/mL (≈ 125 µM) | 50 µg/mL (≈ 125 µM) | 12.5 µg/mL (≈ 31.2 µM) | 25 µg/mL (≈ 62.4 µM) | CC(Cl)OC(=O)O/N=C1\CC(c2ccccc2)N(C)C(c2ccccc2)C1C (stereo not given) | 22 mm | 17 mm | 22 mm | 17 mm | 22 mm | 17 mm | 17 mm | 17 mm | 17 mm | 22 mm
12.5 µg/mL (≈ 29.1 µM) | 12.5 µg/mL (≈ 29.1 µM) | 25 µg/mL (≈ 58.3 µM) | 6.25 µg/mL (≈ 14.6 µM) | 6.25 µg/mL (≈ 14.6 µM) | 6.25 µg/mL (≈ 14.6 µM) | 25 µg/mL (≈ 58.3 µM) | 25 µg/mL (≈ 58.3 µM) | 6.25 µg/mL (≈ 14.6 µM) | 12.5 µg/mL (≈ 29.1 µM) | CC(Cl)OC(=O)O/N=C1\CC(c2ccccc2)N(C)C(c2ccccc2)C1C(C)C (stereo not given) | 22 mm | 32 mm | 32 mm | 32 mm | 32 mm | 22 mm | 32 mm | 17 mm | 22 mm | 32 mm
12.5 µg/mL (≈ 30.1 µM) | 12.5 µg/mL (≈ 30.1 µM) | 25 µg/mL (≈ 60.3 µM) | 25 µg/mL (≈ 60.3 µM) | 6.25 µg/mL (≈ 15.1 µM) | 12.5 µg/mL (≈ 30.1 µM) | 25 µg/mL (≈ 60.3 µM) | 25 µg/mL (≈ 60.3 µM) | 12.5 µg/mL (≈ 30.1 µM) | 25 µg/mL (≈ 60.3 µM) | CCC1/C(=N/OC(=O)OC(C)Cl)CC(c2ccccc2)N(C)C1c1ccccc1 (stereo not given) | 22 mm | 17 mm | 22 mm | 22 mm | 32 mm | 17 mm | 17 mm | 17 mm | 17 mm | 22 mm
